According to patent publication US20160263097A1 (Bristol-Myers Squibb Company, priority 2012, published 2016):
Values joined by “and” are separate entries in the source; they are usually repeats but may differ in a detail not shown here. Equal values may be shown once.

Legend:
Type in all cases: in vivo, human
[1] = Study 2: open-label 3-way crossover, liquid formulation oral vs NGT with D5W or infant formula flush; settings: for half-life / Tmax / AUC(0-t) / AUC(0-inf): human, plasma, 5 mg
Description: (§1) Frel of a crushed tablet administered via NGT versus oral liquid formulation was also evaluated. […] The effect of different flush media [D5W and infant formula (Similac®)] and coadministered nutritional supplement (Boost Plus®) on the liquid formulation's bioavailability was assessed.
(§2) Three open-label, randomized, crossover studies were conducted. […] Serial pharmacokinetics samples were collected. […] Frel was defined as the ratio of AUCinf.
(§3) Key exclusion criteria included: (i) any history or evidence of abnormal bleeding or coagulation disorders, intracranial hemorrhage, or abnormal bleeding; (ii) any gastrointestinal surgery that could impact upon the absorption of study drug; and (iii) current or recent (within 3 months) gastrointestinal disease including, but not limited to dyspepsia, gastrointestinal ulcers, esophageal or gastric varices, or hemorrhoids.

[2] = Safety assessments in the studies (adverse events, vital signs, ECGs, laboratory tests); settings: healthy subjects in the studies, 5 or 10 mg single doses
Source text: Safety assessments were made based on adverse event reports and the results of vital sign measurements, ECGs, physical examinations, and clinical laboratory tests.

[3] = Study 1: open-label 2-way crossover relative bioavailability, tablet vs oral liquid formulation; settings: for Tmax / AUC(0-t) / AUC(0-inf) / half-life: human, plasma; for half-life: read-out: T1/2 Mean (converted)
Description: as §1, §2, §3

[4] = Study 3: open-label 3-way crossover, liquid formulation oral vs NGT with Boost Plus vs crushed tablet via NGT; settings: for half-life / AUC(0-t) / AUC(0-inf) / Tmax: human, plasma, 5 mg; for Tmax: read-out: Tmax Median
Description: as §1, with “The apixaban liquid formulation was administered orally (PO), via nasogastric tube (NGT) with different flush media, or with an enteral meal (BOOST Plus®). Frel” for “Frel”
as §2, §3

[5] = Study 1, Treatment A: 2 × 5 mg Phase 3 tablets, oral, healthy subjects

In the case of `COc1ccc(-n2nc(C(N)=O)c3c2C(=O)N(c2ccc(N4CCCCC4=O)cc2)CC3)cc1` [Apixaban, 4,5,6,7-tetrahydro-1-(4-methoxyphenyl)-7-oxo-6-[4-(2-oxo-1-piperidinyl)phenyl]-1H-pyrazolo[3,4-c]pyridine-3-carboxamide], the Cmax Geo. Mean ([1]; Study 2, Treatment A: 5 mg (12.5 mL) liquid formulation by mouth via oral syringe) is reported as 189 ng/mL, the Cmax Adj.Geo.Mean ([1]; Study 2, Treatment A: liquid formulation by mouth) is reported as 191 ng/mL and the Cmax Adj.Geo.Mean ([1]; Study 2, Treatment B: liquid formulation via NGT, D5W flush) is reported as 182 ng/mL. The “Frel Geo. Mean” value ([1]; Study 2, Treatment C (NGT, infant formula flush) versus oral liquid formulation) was 0.922, the Cmax Geo. Mean ([1]; Study 2, Treatment C: 5 mg (12.5 mL) liquid formulation via NGT followed by 60 mL of infant formula via NGT) was 153 ng/mL and the Cmax Adj.Geo.Mean ([1]; Study 2, Treatment C: liquid formulation via NGT, infant formula flush) was 154 ng/mL. The Frel ([1]; Study 2, liquid formulation via NGT flushed with 60 mL infant formula versus oral liquid formulation) was 92.2% and 92%, the half-life ([1]; Study 2, across the 3 treatments, read-out: mean T1/2 (converted)) was ~10.5 h and the Tmax ([1]; Study 2, across the 3 treatments, read-out: median Tmax) was 0.5 to 1 h. It also gave an AUC(0-t) ([1]; oral, Study 2, Treatment A: liquid formulation by mouth, read-out: AUC(0-T) Adj.Geo.Mean) of 1270 ng·h/mL, an AUC(0-inf) ([1]; oral, Study 2, Treatment A: liquid formulation by mouth, read-out: AUCinf Adj.Geo.Mean) of 1290 ng·h/mL and an AUC(0-t) ([1]; other: via nasogastric tube (NGT), Study 2, Treatment B: liquid formulation via NGT, D5W flush, read-out: AUC(0-T) Adj.Geo.Mean) of 1230 ng·h/mL. The AUC(0-inf) ([1]; other: via nasogastric tube (NGT), Study 2, Treatment B: liquid formulation via NGT, D5W flush, read-out: AUCinf Adj.Geo.Mean) was 1250 ng·h/mL, the AUC(0-t) ([1]; other: via nasogastric tube (NGT), Study 2, Treatment C: liquid formulation via NGT, infant formula flush, read-out: AUC(0-T) Adj.Geo.Mean) was 1170 ng·h/mL and the AUC(0-inf) ([1]; other: via nasogastric tube (NGT), Study 2, Treatment C: liquid formulation via NGT, infant formula flush, read-out: AUCinf Adj.Geo.Mean) was 1190 ng·h/mL. It also gave an AUC(0-t) ([1]; po, Study 2, Treatment A: 5 mg (12.5 mL) liquid formulation by mouth via oral syringe, read-out: AUC(0-T) Geo. Mean) of 1260 ng·h/mL, an AUC(0-inf) ([1]; po, Study 2, Treatment A: 5 mg (12.5 mL) liquid formulation by mouth via oral syringe, read-out: AUCinf Geo. Mean) of 1280 ng·h/mL and a half-life ([1]; po, Study 2, Treatment A: 5 mg (12.5 mL) liquid formulation by mouth via oral syringe, read-out: T1/2 Mean (converted)) of 10.5 h. It also gave a Tmax ([1]; po, Study 2, Treatment A: 5 mg (12.5 mL) liquid formulation by mouth via oral syringe, read-out: Tmax Median) of 0.517 h, an AUC(0-t) ([1]; po, Study 2, Treatment B: 5 mg (12.5 mL) liquid formulation via NGT followed by 60 mL of D5W via NGT, read-out: AUC(0-T) Geo. Mean) of 1210 ng·h/mL and an AUC(0-inf) ([1]; po, Study 2, Treatment B: 5 mg (12.5 mL) liquid formulation via NGT followed by 60 mL of D5W via NGT, read-out: AUCinf Geo. Mean) of 1240 ng·h/mL. It also gave a half-life ([1]; po, Study 2, Treatment B: 5 mg (12.5 mL) liquid formulation via NGT followed by 60 mL of D5W via NGT, read-out: T1/2 Mean (converted)) of 10.4 h, a Tmax ([1]; po, Study 2, Treatment B: 5 mg (12.5 mL) liquid formulation via NGT followed by 60 mL of D5W via NGT, read-out: Tmax Median) of 1 h and an AUC(0-t) ([1]; po, Study 2, Treatment C: 5 mg (12.5 mL) liquid formulation via NGT followed by 60 mL of infant formula via NGT, read-out: AUC(0-T) Geo. Mean) of 1150 ng·h/mL. The AUC(0-inf) ([1]; po, Study 2, Treatment C: 5 mg (12.5 mL) liquid formulation via NGT followed by 60 mL of infant formula via NGT, read-out: AUCinf Geo. Mean) was 1180 ng·h/mL, the half-life ([1]; po, Study 2, Treatment C: 5 mg (12.5 mL) liquid formulation via NGT followed by 60 mL of infant formula via NGT, read-out: T1/2 Mean (converted)) was 10.6 h and the Tmax ([1]; po, Study 2, Treatment C: 5 mg (12.5 mL) liquid formulation via NGT followed by 60 mL of infant formula via NGT, read-out: Tmax Median) was 1 h. For the same molecule, the “safety and tolerability” value [2] was “safe and well tolerated”, the Cmax Adj.Geo.Mean ([3]; Study 1, Treatment A: 2 × 5 mg Phase 3 tablets) was 294 ng/mL and the Cmax Geo. Mean [3, 5] was 294 ng/mL. The “Tmax Median” value [3, 5] was 2 h, the Cmax Adj.Geo.Mean ([3]; Study 1, Treatment B: 25 mL × 0.4 mg/mL liquid formulation) was 287 ng/mL and the Cmax Geo. Mean ([3]; Study 1, Treatment B: 25 mL × 0.4 mg/mL liquid formulation, oral, healthy subjects) was 287 ng/mL. The Tmax ([3]; 10 mg, Study 1, Treatment B: 25 mL × 0.4 mg/mL liquid formulation, oral, healthy subjects, read-out: Tmax Median) was 2 h, the AUC(0-t) ([3]; oral, 10 mg, Study 1, Treatment A: 2 × 5 mg Phase 3 tablets, read-out: AUC(0-T) Adj.Geo.Mean) was 2670 ng·h/mL and the AUC(0-inf) ([3]; oral, 10 mg, Study 1, Treatment A: 2 × 5 mg Phase 3 tablets, read-out: AUCinf Adj.Geo.Mean) was 2710 ng·h/mL. The AUC(0-t) ([3]; oral, 10 mg, Study 1, Treatment B: 25 mL × 0.4 mg/mL liquid formulation, read-out: AUC(0-T) Adj.Geo.Mean) was 2780 ng·h/mL, the AUC(0-inf) ([3]; oral, 10 mg, Study 1, Treatment B: 25 mL × 0.4 mg/mL liquid formulation, read-out: AUCinf Adj.Geo.Mean) was 2850 ng·h/mL and the AUC(0-t) ([3]; po, 10 mg, Study 1, Treatment A: 2 × 5 mg Phase 3 tablets, oral, healthy subjects, read-out: AUC(0-T) Geo. Mean) was 2660 ng·h/mL. The AUC(0-inf) ([3]; po, 10 mg, Study 1, Treatment A: 2 × 5 mg Phase 3 tablets, oral, healthy subjects, read-out: AUCinf Geo. Mean) was 2710 ng·h/mL, the half-life ([3]; po, 10 mg, Study 1, Treatment A: 2 × 5 mg Phase 3 tablets, oral, healthy subjects) was 12.3 h and the AUC(0-t) ([3]; po, 10 mg, Study 1, Treatment B: 25 mL × 0.4 mg/mL liquid formulation, oral, healthy subjects, read-out: AUC(0-T) Geo. Mean) was 2790 ng·h/mL. The AUC(0-inf) ([3]; po, 10 mg, Study 1, Treatment B: 25 mL × 0.4 mg/mL liquid formulation, oral, healthy subjects, read-out: AUCinf Geo. Mean) was 2860 ng·h/mL, the half-life ([3]; po, 10 mg, Study 1, Treatment B: 25 mL × 0.4 mg/mL liquid formulation, oral, healthy subjects) was 13.8 h and the Tmax ([3]; summary over all treatments of Studies 1-3 except BOOST Plus, read-out: Tmax median) was 0.5 to 2 h. For the same molecule, the Cmax Geo. Mean (% CV) ([4]; Study 3, TRT A: 5 mg oral liquid formulation (0.4 mg/mL × 12.5 mL) administered orally) was 177 ng/mL, the Cmax Adj.Geo.Mean ([4]; Study 3, TRT A: 5 mg oral liquid formulation administered orally) was 179 ng/mL and the “Frel Geo. Mean” value ([4]; Study 3, TRT B (liquid formulation after Boost Plus via NGT) versus oral liquid formulation) was 0.813. The Cmax Geo. Mean (% CV) ([4]; Study 3, TRT B: 5 mg oral liquid formulation (0.4 mg/mL × 12.5 mL) after Boost Plus via NGT) was 121 ng/mL, the Cmax Adj.Geo.Mean ([4]; Study 3, TRT B: 5 mg oral liquid formulation after Boost Plus via NGT) was 122 ng/mL and the “Frel Geo. Mean” value ([4]; Study 3, TRT C (crushed tablet via NGT) versus oral liquid formulation) was 0.951. It also gave a Cmax Adj.Geo.Mean ([4]; Study 3, TRT C: 5 mg crushed tablet via NGT) of 158 ng/mL, a Cmax Geo. Mean (% CV) ([4]; Study 3, TRT C: 5 mg crushed tablet via NGT (suspended in 60 mL D5W)) of 158 ng/mL and a Frel ([4]; Study 3, crushed tablet via NGT versus oral liquid formulation) of 95%. For the same molecule, the Frel ([4]; Study 3, liquid formulation with BOOST Plus via NGT versus oral liquid formulation) was 81%, the half-life ([4]; Study 3, between the 3 treatments, read-out: mean T1/2) was 9.6 to 11.2 h and the AUC(0-t) ([4]; other: via nasogastric tube (NGT), Study 3, TRT C: 5 mg crushed tablet via NGT (suspended in 60 mL D5W), read-out: AUC(0-T) Geo. Mean (% CV)) was 1300 ng·h/mL. It also gave an AUC(0-inf) ([4]; other: via nasogastric tube (NGT), Study 3, TRT C: 5 mg crushed tablet via NGT (suspended in 60 mL D5W), read-out: AUCinf Geo. Mean (% CV)) of 1320 ng·h/mL, a half-life ([4]; other: via nasogastric tube (NGT), Study 3, TRT C: 5 mg crushed tablet via NGT (suspended in 60 mL D5W), read-out: T1/2 Mean (converted)) of 10.4 h and a Tmax ([4]; other: via nasogastric tube (NGT), Study 3, TRT C: 5 mg crushed tablet via NGT (suspended in 60 mL D5W)) of 1 h. For the same molecule, the AUC(0-t) ([4]; other: via nasogastric tube (NGT), Study 3, TRT C: 5 mg crushed tablet via NGT, read-out: AUC(0-T) Adj.Geo.Mean) was 1300 ng·h/mL, the AUC(0-inf) ([4]; other: via nasogastric tube (NGT), Study 3, TRT C: 5 mg crushed tablet via NGT, read-out: AUCinf Adj.Geo.Mean) was 1330 ng·h/mL and the AUC(0-t) ([4]; po, Study 3, TRT A: 5 mg oral liquid formulation (0.4 mg/mL × 12.5 mL) administered orally, read-out: AUC(0-T) Geo. Mean (% CV)) was 1350 ng·h/mL. The AUC(0-inf) ([4]; po, Study 3, TRT A: 5 mg oral liquid formulation (0.4 mg/mL × 12.5 mL) administered orally, read-out: AUCinf Geo. Mean (% CV)) was 1380 ng·h/mL, the half-life ([4]; po, Study 3, TRT A: 5 mg oral liquid formulation (0.4 mg/mL × 12.5 mL) administered orally, read-out: T1/2 Mean (converted)) was 11.2 h and the Tmax ([4]; po, Study 3, TRT A: 5 mg oral liquid formulation (0.4 mg/mL × 12.5 mL) administered orally) was 1 h. For the same molecule, the AUC(0-t) ([4]; po, Study 3, TRT A: 5 mg oral liquid formulation administered orally, read-out: AUC(0-T) Adj.Geo.Mean) was 1370 ng·h/mL, the AUC(0-inf) ([4]; po, Study 3, TRT A: 5 mg oral liquid formulation administered orally, read-out: AUCinf Adj.Geo.Mean) was 1400 ng·h/mL and the AUC(0-t) ([4]; po, Study 3, TRT B: 5 mg oral liquid formulation (0.4 mg/mL × 12.5 mL) after Boost Plus via NGT, read-out: AUC(0-T) Geo. Mean (% CV)) was 1100 ng·h/mL. For the same molecule, the AUC(0-inf) ([4]; po, Study 3, TRT B: 5 mg oral liquid formulation (0.4 mg/mL × 12.5 mL) after Boost Plus via NGT, read-out: AUCinf Geo. Mean (% CV)) was 1120 ng·h/mL, the half-life ([4]; po, Study 3, TRT B: 5 mg oral liquid formulation (0.4 mg/mL × 12.5 mL) after Boost Plus via NGT, read-out: T1/2 Mean (converted)) was 9.56 h and the Tmax ([4]; po, Study 3, TRT B: 5 mg oral liquid formulation (0.4 mg/mL × 12.5 mL) after Boost Plus via NGT) was 3 h. The AUC(0-t) ([4]; po, Study 3, TRT B: 5 mg oral liquid formulation after Boost Plus via NGT, read-out: AUC(0-T) Adj.Geo.Mean) was 1110 ng·h/mL and the AUC(0-inf) ([4]; po, Study 3, TRT B: 5 mg oral liquid formulation after Boost Plus via NGT, read-out: AUCinf Adj.Geo.Mean) was 1140 ng·h/mL.
